This is an account of results in patent US11773062B2, “Deuterated compounds” (priority 2021, dated 2023).

The structures appear in SMILES notation. Where two headings read alike, the source gives them in different places.

The target of series [1] is T1, CYP2D6 (Homo sapiens, UniProt P10635).
Procedure: (§5) The CYPs used in this study are heterologously expressed in E. coli and purchased as individualised forms (CYP bactosomes) from CYPEX. Bactosomes contain recombinant CYP isoenzymes combined with CYP reductase leading to a higher specific activity than liver microsomes.
(§6) Phosphate buffer is prepared at 0.1 M, pH 7.4 by combining 0.1 M Na2HPO4 and 0.1 M KH2PO4 solutions.
(§7) Nicotinamide adenine dinucleotide 2′-phosphate reduced tetrasodium salt hydrate (NADPH) is prepared at 10 m<in 0.1 M phosphate buffer (pH 7.4).
(§8) The individual CYP bactosomes are thawed at room temperature undiluted to 200 pmol/mL and 0.1 M phosphate buffer.
(§9) Standard final incubation conditions are 1-3 μM compound in a buffer containing 100 pmol/mL CYP bactosome, 1% (v/v) DMSO.
(§10) The elimination rate constant (k) is calculated using the slope of a ln (MS peak area or response—if internal standard is used) vs. time plot of the test compounds and markers.
(§11) Intrinsic clearance in μL/min/nmol CYP is calculated using the following equation: Clint=−1000 k/CYP concentration
(§12) Projected CYP isoform intrinsic clearance accounting for estimated CYP abundance in human liver microsomes (μL/min/mg microsomal protein)* is calculated using the following equation: Projected set isoform intrinsic clearance=Estimated CYP abundance*Clint * Estimated CYP abundance is taken as an average from three literature references 1, 2 3 and the abundances used are as follows (nmol CYP/mg Human Liver Microsomal Protein):
A further series addresses T2, CYP1A2 (Homo sapiens, UniProt P05177).
T2 sequence (P05177 1-516): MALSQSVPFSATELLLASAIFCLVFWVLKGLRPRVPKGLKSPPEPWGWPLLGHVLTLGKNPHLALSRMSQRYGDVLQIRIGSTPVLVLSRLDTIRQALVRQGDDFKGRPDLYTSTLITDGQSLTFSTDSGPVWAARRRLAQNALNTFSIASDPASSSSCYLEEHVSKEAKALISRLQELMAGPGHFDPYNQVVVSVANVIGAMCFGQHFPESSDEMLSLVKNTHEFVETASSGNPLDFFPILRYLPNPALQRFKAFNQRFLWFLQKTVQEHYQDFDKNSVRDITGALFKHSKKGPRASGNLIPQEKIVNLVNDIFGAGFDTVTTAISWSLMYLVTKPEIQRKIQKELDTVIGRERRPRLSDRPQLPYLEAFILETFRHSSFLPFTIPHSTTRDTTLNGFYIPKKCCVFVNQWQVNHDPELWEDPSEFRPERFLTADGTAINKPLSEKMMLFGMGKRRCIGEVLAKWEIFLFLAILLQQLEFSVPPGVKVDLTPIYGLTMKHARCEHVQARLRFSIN
As to the kind of experiment: in vitro. As for the experimental part:
(§1) Samples were taken at predetermined time points.
(§2) Samples were then centrifuged at −4° C.
(§3) Positive control markers are as specified in Table 11.

Series [2] addresses T1, CYP2D6. As to the kind of experiment: in vitro. Particulars: recombinant enzyme, pH 7.4.
Procedure: as §5, §6, §7, §8, §9, §10, §11, §12
A further series deals with CYP2C19 (Homo sapiens, UniProt P33261). As to the kind of experiment: in vitro. As for the experimental part:
as §1, §2, §3

For the next series, the target named is CYP3A4 (Homo sapiens, UniProt P08684). Description: in vitro. As for the experimental part:
as §1, §2, §3

For the next series, the target named is CYP2C9 (Homo sapiens, UniProt P11712). As to the kind of experiment: in vitro. As for the experimental part: as §1, §2, §3
The nature of series [3]: In vitro mouse hepatocytic intrinsic clearance. The note with it: male, CD-1, mouse, hepatocytes.
In series [4] the test system is human (mixed gender) hepatocytes. Description: In vitro intrinsic clearance in human hepatocytes with and without MAO-A/B inhibitor combination (first experiment).
Procedure: Standard final incubation conditions are 1 μM compound in buffer containing nominally ˜0.5 million viable cells/mL, ˜0.9% (v/v) acetonitrile (MeCN) and ˜0.1% (v/v) DMSO (specific assay concentrations outlined above, section 2).
Samples are then centrifuged at 4° C.
Series [5] can be described thus: Human liver mitochondrial fraction intrinsic clearance of SPL026 with/without MAO-A and MAO-B inhibitors. Format: in vitro ADME. From the text: (§4) Human Liver Mitochondrial (HLMt) fractions contain high quantities of MAO enzymes and therefore, provide a useful tool to measure the clearance of MAO substrates.
A further series deals with T3, CYP2C8 (Homo sapiens, UniProt P10632).
T3 sequence (P10632 1-490): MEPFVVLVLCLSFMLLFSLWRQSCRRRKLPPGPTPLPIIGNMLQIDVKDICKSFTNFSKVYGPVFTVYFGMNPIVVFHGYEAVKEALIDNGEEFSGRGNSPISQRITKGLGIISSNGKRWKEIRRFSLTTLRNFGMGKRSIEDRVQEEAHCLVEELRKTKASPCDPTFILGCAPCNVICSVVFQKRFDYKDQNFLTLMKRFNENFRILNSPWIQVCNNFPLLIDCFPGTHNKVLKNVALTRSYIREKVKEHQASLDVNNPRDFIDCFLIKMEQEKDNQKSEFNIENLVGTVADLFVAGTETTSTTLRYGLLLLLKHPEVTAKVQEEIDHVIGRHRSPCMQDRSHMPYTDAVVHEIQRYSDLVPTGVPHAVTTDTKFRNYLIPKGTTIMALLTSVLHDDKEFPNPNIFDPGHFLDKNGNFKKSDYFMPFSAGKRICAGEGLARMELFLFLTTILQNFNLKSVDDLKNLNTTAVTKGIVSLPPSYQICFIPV
As to the kind of experiment: in vitro. As for the experimental part:
as §1, §2, §3

The target of the next series is T4, CYP2B6 (Homo sapiens, UniProt P20813).
T4 sequence (P20813 1-491): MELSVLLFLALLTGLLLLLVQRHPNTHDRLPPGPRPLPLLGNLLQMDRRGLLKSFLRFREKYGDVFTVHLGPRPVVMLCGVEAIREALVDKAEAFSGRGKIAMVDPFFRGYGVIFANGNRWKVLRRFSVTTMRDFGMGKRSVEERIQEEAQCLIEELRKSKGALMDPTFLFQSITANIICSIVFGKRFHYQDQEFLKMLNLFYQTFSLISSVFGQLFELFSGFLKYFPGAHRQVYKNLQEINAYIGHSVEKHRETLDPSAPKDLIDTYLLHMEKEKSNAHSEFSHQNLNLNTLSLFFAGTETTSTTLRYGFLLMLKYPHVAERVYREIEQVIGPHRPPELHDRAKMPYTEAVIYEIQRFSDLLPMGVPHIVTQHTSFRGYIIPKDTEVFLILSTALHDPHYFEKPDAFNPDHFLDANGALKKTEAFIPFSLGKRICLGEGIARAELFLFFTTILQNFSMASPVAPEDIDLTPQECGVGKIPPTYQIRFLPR
As to the kind of experiment: in vitro. On the procedure: as §1, §2, §3

The next series addresses CYP3A5 (Homo sapiens, UniProt P20815). As to the kind of experiment: in vitro. As for the experimental part:
as §1, §2, §3

The target of series [6] is T1, CYP2D6. Description: CYP phenotyping, CYP bactosomes.
Procedure: as §5, §6, §7, §8, §9, §10, §11, §12
A short description of series [7]: Human liver mitochondrial fraction intrinsic clearance of SPL026, SPL028i, SPL028iii, SPL028viii. Format: in vitro ADME. Particulars: 0.5 mg/mL human liver mitochondrial fraction (Table 10).
Text: as §4

For series [8] the following is noted: in vivo; cited from earlier work.
[9] abbreviates: human, recombinant enzyme, pH 7.4.
Setting [10] is: human hepatocytes, with MAO-A/B inhibitor combination (Table 5).
Setting [11] is: human hepatocytes, without MAO-A/B inhibitor combination (Table 5).
[12] abbreviates: human liver mitochondrial fraction, Deprenyl (MAO-B inhibitor) 100 nM.
Where [13] appears, read: E. coli CYPEX membranes, 100 pmol/mL CYP.

Chain of CYP3A4 (P08684 whole entry): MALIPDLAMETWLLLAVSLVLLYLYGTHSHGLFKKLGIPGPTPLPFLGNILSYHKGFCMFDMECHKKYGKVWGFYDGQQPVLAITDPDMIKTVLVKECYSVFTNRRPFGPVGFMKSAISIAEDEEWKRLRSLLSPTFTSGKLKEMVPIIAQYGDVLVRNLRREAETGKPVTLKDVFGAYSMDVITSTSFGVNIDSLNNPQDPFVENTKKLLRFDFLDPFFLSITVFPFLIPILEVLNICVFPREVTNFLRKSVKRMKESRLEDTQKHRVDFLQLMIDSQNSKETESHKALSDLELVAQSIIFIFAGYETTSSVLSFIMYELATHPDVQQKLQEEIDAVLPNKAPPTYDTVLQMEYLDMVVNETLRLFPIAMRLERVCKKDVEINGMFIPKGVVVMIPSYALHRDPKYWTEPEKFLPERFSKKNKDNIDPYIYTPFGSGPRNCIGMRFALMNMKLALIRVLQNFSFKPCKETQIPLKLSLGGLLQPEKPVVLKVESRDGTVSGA
Chain of CYP2C19 (P33261 whole entry): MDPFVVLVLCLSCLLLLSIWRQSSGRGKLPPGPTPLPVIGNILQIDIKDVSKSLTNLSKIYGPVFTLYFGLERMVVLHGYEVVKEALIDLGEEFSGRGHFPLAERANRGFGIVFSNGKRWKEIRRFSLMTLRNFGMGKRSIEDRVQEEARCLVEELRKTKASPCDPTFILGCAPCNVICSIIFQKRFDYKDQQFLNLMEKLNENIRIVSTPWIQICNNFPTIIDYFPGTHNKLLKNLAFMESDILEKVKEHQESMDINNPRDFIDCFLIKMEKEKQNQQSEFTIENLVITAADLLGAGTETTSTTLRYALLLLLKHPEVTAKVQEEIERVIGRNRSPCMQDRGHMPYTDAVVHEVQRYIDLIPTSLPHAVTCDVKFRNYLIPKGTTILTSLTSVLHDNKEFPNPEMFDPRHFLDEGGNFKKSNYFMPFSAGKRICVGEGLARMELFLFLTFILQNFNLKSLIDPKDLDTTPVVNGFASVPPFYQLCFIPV
Chain of CYP2C9 (P11712 whole entry): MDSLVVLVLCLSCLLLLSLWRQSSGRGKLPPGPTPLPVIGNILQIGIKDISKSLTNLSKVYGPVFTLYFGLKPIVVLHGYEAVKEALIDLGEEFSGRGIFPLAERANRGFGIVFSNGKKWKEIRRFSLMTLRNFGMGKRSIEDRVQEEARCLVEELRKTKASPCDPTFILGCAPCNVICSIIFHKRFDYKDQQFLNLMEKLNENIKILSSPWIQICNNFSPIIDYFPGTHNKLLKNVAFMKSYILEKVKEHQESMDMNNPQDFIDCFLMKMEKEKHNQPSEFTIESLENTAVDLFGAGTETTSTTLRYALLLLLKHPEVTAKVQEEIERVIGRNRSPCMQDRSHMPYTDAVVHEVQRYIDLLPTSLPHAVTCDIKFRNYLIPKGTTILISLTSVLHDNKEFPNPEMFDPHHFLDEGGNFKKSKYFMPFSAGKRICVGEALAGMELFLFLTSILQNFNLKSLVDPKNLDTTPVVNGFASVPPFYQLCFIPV
T1 sequence (P10635 whole entry): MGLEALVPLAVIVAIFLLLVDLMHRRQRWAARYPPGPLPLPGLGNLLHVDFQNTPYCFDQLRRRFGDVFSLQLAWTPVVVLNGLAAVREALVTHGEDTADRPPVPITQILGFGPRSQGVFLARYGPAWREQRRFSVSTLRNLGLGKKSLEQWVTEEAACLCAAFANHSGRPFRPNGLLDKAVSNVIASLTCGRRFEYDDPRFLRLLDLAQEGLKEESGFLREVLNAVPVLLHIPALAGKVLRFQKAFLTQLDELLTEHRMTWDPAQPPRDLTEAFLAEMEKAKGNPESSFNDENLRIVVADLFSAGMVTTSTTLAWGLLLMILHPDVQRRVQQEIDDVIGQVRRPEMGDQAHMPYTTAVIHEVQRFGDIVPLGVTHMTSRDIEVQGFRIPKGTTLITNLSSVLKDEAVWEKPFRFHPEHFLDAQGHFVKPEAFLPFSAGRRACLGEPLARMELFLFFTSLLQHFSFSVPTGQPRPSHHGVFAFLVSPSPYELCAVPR
Chain of CYP3A5 (P20815 whole entry): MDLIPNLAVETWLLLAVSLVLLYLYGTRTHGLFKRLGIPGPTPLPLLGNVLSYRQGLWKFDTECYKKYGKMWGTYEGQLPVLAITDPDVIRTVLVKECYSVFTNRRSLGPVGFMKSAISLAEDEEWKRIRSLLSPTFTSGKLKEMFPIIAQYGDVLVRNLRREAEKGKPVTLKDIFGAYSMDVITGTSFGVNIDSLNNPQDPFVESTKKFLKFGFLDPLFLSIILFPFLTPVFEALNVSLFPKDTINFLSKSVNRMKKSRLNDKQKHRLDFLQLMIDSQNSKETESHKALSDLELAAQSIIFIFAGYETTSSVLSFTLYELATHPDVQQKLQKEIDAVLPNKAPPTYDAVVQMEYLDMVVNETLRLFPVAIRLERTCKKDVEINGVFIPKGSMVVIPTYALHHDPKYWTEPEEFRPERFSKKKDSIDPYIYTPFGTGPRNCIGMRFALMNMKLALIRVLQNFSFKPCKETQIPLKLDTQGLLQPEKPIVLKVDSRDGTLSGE

Regarding `COc1ccccc1OCCNCC(O)COc1cccc2[nH]c3ccccc3c12` (stereo not drawn) [Carvedilol, reference compound], the “intrinsic clearance, CYP isoform 2D6” value at CYP2D6 [1] (setting [9]) was determined as 4483 μL/min/nmol CYP. At CYP1A2 (setting [9]), the half-life – broadly, the time needed for the level to fall by half in the phase considered – was found to be 0.5 h and the “intrinsic clearance, CYP isoform 1A2” value came to 231 μL/min/nmol CYP. Moreover, on CYP2D6 [2], the half-life came out at 2 min. In addition, at CYP2C19 (setting [9]), the half-life came out at 0.217 h and the “intrinsic clearance, CYP isoform 2C19” value turned out to be 526 μL/min/nmol CYP. Also, at CYP3A4 (setting [9]), the half-life turned out to be 0.817 h and the “intrinsic clearance, CYP isoform 3A4” value is listed as 142 μL/min/nmol CYP. Also, at CYP2C9 (setting [9]), the half-life worked out at 2.23 h and the “intrinsic clearance, CYP isoform 2C9” value worked out at 52 μL/min/nmol CYP.

`CN(C)CCc1c[nH]c2ccccc12` [SPL026, N,N-dimethyltryptamine, reference compound] displayed a half-life at 5 μM in series [3] of 0.255 h. The intrinsic clearance (hepatocyte CLint) (as a rule, the capacity of the preparation to metabolise the compound, expressed as a volume cleared per time) at 5 μM in series [3] worked out at 124 µL/min/1e6 cells. In series [4] (human hepatocytes (Table 5)), the “% change in half-life, MAO inhibitors vs no inhibitors” value was 3.82%. Besides, the “% change in intrinsic clearance, MAO inhibitors vs no inhibitors” value in series [4] (human hepatocytes (Table 5)) is on record as −4.00%. The “Intrinsic clearance, with inhibitors” value was 13.24 μL/min/million cells in [4] (human hepatocytes, with 100 nM clorgyline + 100 nM deprenyl/selegiline (Table 3)) and 13.24 μL/min/million cells in series [4] (setting [10]). In addition, the “Half-life, with inhibitors” value in series [4] (setting [10]) is 1.601 h; in series [4] (human hepatocytes, with MAO-A/B inhibitors (Table 4; unit given only in Table 5)) it was 1.601 h. Moreover, the “slower intrinsic clearance with inclusion of MAO inhibitors” value in series [4] (human hepatocytes, with vs without MAO inhibitors) was around 4%. For the same compound, the “Half-life, without inhibitors” value is 1.54 h in series [4] (human hepatocytes, without MAO inhibitors (Table 4; unit given only in Table 5)) and 1.54 h in [4] (setting [11]). Also, the “Intrinsic clearance, without inhibitors” value in [4] (setting [11]) worked out at 13.77 μL/min/million cells. The “projected scaled intrinsic clearance, CYP isoform 2D6” value on CYP2D6 [1] was 9.5 μl/min/mg microsomal protein. Also, the half-life is 0.562 h in series [5] (0.5 mg/mL human liver mitochondrial fraction, DMSO Vehicle (no inhibitor)); above 6.228 h in [5] (human liver mitochondrial fraction, Clorgyline (MAO-A inhibitor) 100 nM); 0.542 h in series [5] (setting [12]); above 4 h on CYP2C8 (setting [9]); above 4 h on CYP2B6 (setting [9]); above 4 h at CYP3A5 (setting [9]). The half-life on CYP1A2 (setting [9]) is above 4 h; at CYP2D6 [2], 9 min; at CYP2C19 (setting [9]), 3.15 h; on CYP3A4 (setting [9]) it was above 4 h; on CYP2C9 (setting [9]), above 4 h; in [7] it was 8.6 min. The “Intrinsic Clearance” value in [5] (setting [12]) is listed as 42.7 μL/min/mg protein. Further, the “intrinsic clearance, CYP isoform 2C8” value on CYP2C8 (setting [13]) is given as below 29 μL/min/nmol CYP. In addition, the “intrinsic clearance, CYP isoform 2B6” value on CYP2B6 (setting [13]) was below 29 μL/min/nmol CYP. Further, the “intrinsic clearance, CYP isoform 3A5” value on CYP3A5 (setting [13]) is given as below 29 μL/min/nmol CYP. Further, the “intrinsic clearance, CYP isoform 1A2” value on CYP1A2 (setting [13]) is below 29 μL/min/nmol CYP. For the same compound, the “substrate for CYP2D6” value on CYP2D6 [6] (CYP phenotyping) is recorded as “substrates”. The “intrinsic clearance, CYP isoform 2D6” value on CYP2D6 [6] (setting [13]) is given as 801 μL/min/nmol CYP. Moreover, the “substrate for CYP2C19” value on CYP2C19 (CYP phenotyping) is listed as “substrates”. The “intrinsic clearance, CYP isoform 2C19” value at CYP2C19 (setting [13]) was determined as 37 μL/min/nmol CYP. Further, the “projected scaled intrinsic clearance, CYP isoform 2C19” value on CYP2C19 (scaled by estimated CYP abundance in human liver microsomes (0.009 nmol CYP/mg)) is 0.3 μl/min/mg microsomal protein. Besides, the “intrinsic clearance, CYP isoform 3A4” value at CYP3A4 (setting [13]) is below 29 μL/min/nmol CYP. At CYP2C9 (setting [13]), the “intrinsic clearance, CYP isoform 2C9” value is below 29 μL/min/nmol CYP.

`[2H]C([2H])(c1c[nH]c2ccccc12)C([2H])([2H])N(C)C` [D4DMT, α,α,β,β-tetradeutero-N,N-dimethyltryptamine]: the “behavioural effect compared to equal doses of DMT” value in [8] was “shorter time to onset and potentiation of behaviour disrupting effects”.
